Assays:
RAF1 (CRAF) = RAF1 (CRAF) (Homo sapiens, UniProt P04049); experiment: Kinase selectivity profile; type: biochemical
LTK (TYK1) = LTK (TYK1) (Homo sapiens, UniProt P29376); experiment: Kinase selectivity profile; type: biochemical
BRAF^V600E = molecular target: T1, BRAF^V600E (Homo sapiens, UniProt P15056, V600E); experiment: BRAF^V600E kinase inhibition, Z'-LYTE; type: biochemical
T1 construct: purchased Life Technologies
Procedure: The experiments were performed according to the instructions of the manufacturer, and single point concentration testing with two independent data points (n = 2). […] The IC50 values were calculated from the inhibition curves from two separate experiments.

AURKB (Aurora B) = AURKB (Aurora B) (Homo sapiens, UniProt Q96GD4); experiment: Kinase selectivity profile; type: biochemical
MST1R (RON) = MST1R (RON) (Homo sapiens, UniProt Q04912); experiment: Kinase selectivity profile; type: biochemical
A549 = experiment: MTT anti-proliferative assay, A549; type: cell-based, human; conditions: Homo sapiens, A549; MTT, 48 h
Procedure: (§2) All cell lines were purchased from Cell Bank of China Science Academy (Shanghai, China). All chemicals and solvents were purchased from Sigma-Aldrich (St. Louis, MO, USA) or Gibco (Gibco BRL, Grand Island, NY, USA). The PC-3 and A375 cell lines was maintained in Dulbecco's modified eagle (DEME) medium supplement with 10% fetal bovine serum (FBS) and 1% penicillin–streptomycin. The others were cultured in Roswell Park Memorial Institute (RPMI) 1640 medium supplement with 10% fetal bovine serum (FBS) and 1% penicillin–streptomycin. Approximately 5 × 10^3 cells, suspended in medium, were plated into each well of a 96-well plate and grown at 37 °C in a humidified atmosphere with 5% CO2 for 24 h. The following day, various concentrations of tested compounds were added to the culture medium and incubated for 48 h. Fresh MTT was added to each well at the terminal concentration of 5 mg/mL in phosphate buffered saline (PBS), and incubated with cells at 37 °C for 4 h. The formazan crystals in each well were dissolved in 150 μL DMSO, and the absorbency at 570 nm was measured with an enzyme-linked immunosorbent assay plate reader. All of the compounds were tested three times in each of the cell lines.

LCK = LCK (Homo sapiens, UniProt P06239); experiment: Kinase selectivity profile; type: biochemical
BRAF (wt) = BRAF (wt) (Homo sapiens, UniProt P15056); experiment: Kinase selectivity profile; type: biochemical
HT-29 = experiment: MTT anti-proliferative assay, HT-29; type: cell-based; conditions: Homo sapiens, 48 h
Procedure: as §2

ALK = ALK (Homo sapiens, UniProt Q9UM73); experiment: Kinase selectivity profile; type: biochemical
ABL1 = ABL1 (Homo sapiens, UniProt P00519); experiment: Kinase selectivity profile; type: biochemical
FLT1 (VEGFR1) = FLT1 (VEGFR1) (Homo sapiens, UniProt P17948); experiment: Kinase selectivity profile; type: biochemical
EPHA2 = EPHA2 (Homo sapiens, UniProt P29317); experiment: Kinase selectivity profile; type: biochemical
EGFR (ErbB1) = EGFR (ErbB1) (Homo sapiens, UniProt P00533); experiment: Kinase selectivity profile; type: biochemical
A375 cell line = experiment: Flow cytometric analysis of cell cycle distribution; type: cell-based, human; conditions: for G0/G1 (%) / G2/M (%) / S (%) / Sub-G1 (%): 48 h
Procedure: The effect of compound 1v on cell cycle phase distribution of human malignant melanoma A375 was assessed using flow cytometry. When the cells grew to about 70% confluence in 6-well microplates, they were treated with compound 1v at given concentrations (6.11 μmol/L, 12.21 μmol/L, 24.42 μmol/L). After 48 h, cells were harvested by trypsinization, washed with PBS, and fixed in 70% ice cold (4 °C) ethanol overnight. They were then washed with PBS, incubated with Ribonuclease (RNase) ([…] final concentration) at 37 °C for 30 min, stained with propidium iodide ([…] final concentration), and analyzed by flow cytometry (BD FACS Canto II, BD Biosciences, San Jose, CA, USA).

[1] = MTT cytotoxic assay, normal cell line MDCK; conditions: dog, MDCK cells (normal cell line)
Procedure: as §2

[2] = system: phosphor-MEK protein in A375 cell line; experiment: Western blot of phosphor-MEK, A375; type: cell-based, human; conditions: A375, 48 h treatment
Procedure: (§1) Total cells were harvested after treatment, washed twice with cold PBS, and lysed with RIPA lysis buffer (KeyGEN BioTECH, Nanjing, China) including 1% cocktail (Selleck Chemicals, Houston, TX, USA). Lysates were centrifuged at 12,000× g at 4 °C for 15 min, and the supernatant was collected. Total protein concentration was quantified using the bicinchoninic acid (BCA; Beyotime Institute of Biotechnology, Nanjing, China) protein assay kit (Sigma Chemical Co., St. Louis, MO, USA). The proteins were separated electrophoretically using 10% sodium dodecyl sulfate polyacrylamide gel electrophoresis (SDS-PAGE) and then the gel was transferred onto polyvinylidene fluoride (PVDF; Millipore, Billerica, MA, USA) membranes. […] The immunobands were detected with an enhanced chemiluminescence kit (Beyotime Institute of Biotechnology, Nanjing, China).

PC-3 = experiment: MTT anti-proliferative assay, PC-3; type: cell-based, human; conditions: Homo sapiens, PC-3; MTT, 48 h
Procedure: as §2

ABL2 (Arg) = ABL2 (Arg) (Homo sapiens, UniProt P42684); experiment: Kinase selectivity profile; type: biochemical
PTK2 (FAK) = PTK2 (FAK) (Homo sapiens, UniProt Q05397); experiment: Kinase selectivity profile; type: biochemical
FLT4 (VEGFR3) = FLT4 (VEGFR3) (Homo sapiens, UniProt P35916); experiment: Kinase selectivity profile; type: biochemical
MET (c-Met) = MET (c-Met) (Homo sapiens, UniProt P08581); experiment: Kinase selectivity profile; type: biochemical
VEGFR-2 = VEGFR-2 (Homo sapiens, UniProt P35968); experiment: Kinase selectivity profile; type: biochemical
ErbB2 (HER2) = ErbB2 (HER2) (Homo sapiens, UniProt P04626); experiment: Kinase selectivity profile; type: biochemical
ErbB4 (HER4) = ErbB4 (HER4) (Homo sapiens, UniProt Q15303); experiment: Kinase selectivity profile; type: biochemical
A375 = experiment: MTT anti-proliferative assay, A375; type: cell-based; conditions: Homo sapiens, A-375, 48 h
Procedure: as §2

[3] = system: phosphor-MEK protein in HT-29 cell line; experiment: Western blot of phosphor-MEK, HT-29; type: cell-based, human; conditions: HT-29, 48 h treatment
Procedure: as §1

AURKA (Aurora A) = AURKA (Aurora A) (Homo sapiens, UniProt O14965); experiment: Kinase selectivity profile; type: biochemical
Chain of AURKA (Aurora A) (O14965 whole entry): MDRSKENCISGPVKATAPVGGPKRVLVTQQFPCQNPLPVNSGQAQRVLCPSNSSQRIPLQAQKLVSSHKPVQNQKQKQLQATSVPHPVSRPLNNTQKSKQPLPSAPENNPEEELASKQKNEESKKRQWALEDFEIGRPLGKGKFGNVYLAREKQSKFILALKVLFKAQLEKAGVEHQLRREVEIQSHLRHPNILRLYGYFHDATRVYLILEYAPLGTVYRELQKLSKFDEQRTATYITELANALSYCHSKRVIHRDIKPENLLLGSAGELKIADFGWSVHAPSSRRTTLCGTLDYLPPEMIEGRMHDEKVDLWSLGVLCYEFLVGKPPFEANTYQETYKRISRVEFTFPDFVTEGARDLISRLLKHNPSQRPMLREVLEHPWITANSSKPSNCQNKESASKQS

T1 sequence (P15056 whole entry V600E): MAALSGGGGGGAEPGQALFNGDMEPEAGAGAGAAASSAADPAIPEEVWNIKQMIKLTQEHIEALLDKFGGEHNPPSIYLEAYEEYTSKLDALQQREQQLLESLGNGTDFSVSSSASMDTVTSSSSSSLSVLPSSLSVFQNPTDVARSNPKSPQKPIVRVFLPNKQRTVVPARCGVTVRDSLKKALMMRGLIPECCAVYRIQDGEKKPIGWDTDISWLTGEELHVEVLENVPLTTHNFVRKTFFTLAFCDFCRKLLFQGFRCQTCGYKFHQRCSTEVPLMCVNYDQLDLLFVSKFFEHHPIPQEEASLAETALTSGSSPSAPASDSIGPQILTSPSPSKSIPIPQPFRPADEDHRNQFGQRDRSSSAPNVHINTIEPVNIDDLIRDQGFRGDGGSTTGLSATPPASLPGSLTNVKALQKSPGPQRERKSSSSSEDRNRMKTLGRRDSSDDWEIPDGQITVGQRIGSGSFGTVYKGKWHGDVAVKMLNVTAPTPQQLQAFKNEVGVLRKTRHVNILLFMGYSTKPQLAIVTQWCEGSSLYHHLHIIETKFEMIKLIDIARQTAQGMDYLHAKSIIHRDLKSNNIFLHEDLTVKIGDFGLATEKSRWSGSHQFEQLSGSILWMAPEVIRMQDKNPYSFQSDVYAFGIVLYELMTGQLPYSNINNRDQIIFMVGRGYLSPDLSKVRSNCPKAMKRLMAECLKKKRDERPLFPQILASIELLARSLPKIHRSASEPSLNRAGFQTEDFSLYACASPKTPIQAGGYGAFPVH
Chain of BRAF (wt) (P15056 whole entry): as the sequence (P15056 whole entry V600E) above, with E600V counted along it
Chain of RAF1 (CRAF) (P04049 342-648 limits assumed): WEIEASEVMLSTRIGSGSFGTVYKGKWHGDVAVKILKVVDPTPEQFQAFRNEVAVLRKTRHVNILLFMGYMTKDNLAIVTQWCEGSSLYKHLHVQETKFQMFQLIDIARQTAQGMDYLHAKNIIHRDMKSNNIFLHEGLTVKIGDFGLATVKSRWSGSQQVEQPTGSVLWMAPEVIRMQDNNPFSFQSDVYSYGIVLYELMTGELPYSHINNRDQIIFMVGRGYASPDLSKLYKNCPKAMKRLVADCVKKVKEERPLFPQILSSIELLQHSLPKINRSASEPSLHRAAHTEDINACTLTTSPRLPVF
Chain of FLT1 (VEGFR1) (P17948 27-1338): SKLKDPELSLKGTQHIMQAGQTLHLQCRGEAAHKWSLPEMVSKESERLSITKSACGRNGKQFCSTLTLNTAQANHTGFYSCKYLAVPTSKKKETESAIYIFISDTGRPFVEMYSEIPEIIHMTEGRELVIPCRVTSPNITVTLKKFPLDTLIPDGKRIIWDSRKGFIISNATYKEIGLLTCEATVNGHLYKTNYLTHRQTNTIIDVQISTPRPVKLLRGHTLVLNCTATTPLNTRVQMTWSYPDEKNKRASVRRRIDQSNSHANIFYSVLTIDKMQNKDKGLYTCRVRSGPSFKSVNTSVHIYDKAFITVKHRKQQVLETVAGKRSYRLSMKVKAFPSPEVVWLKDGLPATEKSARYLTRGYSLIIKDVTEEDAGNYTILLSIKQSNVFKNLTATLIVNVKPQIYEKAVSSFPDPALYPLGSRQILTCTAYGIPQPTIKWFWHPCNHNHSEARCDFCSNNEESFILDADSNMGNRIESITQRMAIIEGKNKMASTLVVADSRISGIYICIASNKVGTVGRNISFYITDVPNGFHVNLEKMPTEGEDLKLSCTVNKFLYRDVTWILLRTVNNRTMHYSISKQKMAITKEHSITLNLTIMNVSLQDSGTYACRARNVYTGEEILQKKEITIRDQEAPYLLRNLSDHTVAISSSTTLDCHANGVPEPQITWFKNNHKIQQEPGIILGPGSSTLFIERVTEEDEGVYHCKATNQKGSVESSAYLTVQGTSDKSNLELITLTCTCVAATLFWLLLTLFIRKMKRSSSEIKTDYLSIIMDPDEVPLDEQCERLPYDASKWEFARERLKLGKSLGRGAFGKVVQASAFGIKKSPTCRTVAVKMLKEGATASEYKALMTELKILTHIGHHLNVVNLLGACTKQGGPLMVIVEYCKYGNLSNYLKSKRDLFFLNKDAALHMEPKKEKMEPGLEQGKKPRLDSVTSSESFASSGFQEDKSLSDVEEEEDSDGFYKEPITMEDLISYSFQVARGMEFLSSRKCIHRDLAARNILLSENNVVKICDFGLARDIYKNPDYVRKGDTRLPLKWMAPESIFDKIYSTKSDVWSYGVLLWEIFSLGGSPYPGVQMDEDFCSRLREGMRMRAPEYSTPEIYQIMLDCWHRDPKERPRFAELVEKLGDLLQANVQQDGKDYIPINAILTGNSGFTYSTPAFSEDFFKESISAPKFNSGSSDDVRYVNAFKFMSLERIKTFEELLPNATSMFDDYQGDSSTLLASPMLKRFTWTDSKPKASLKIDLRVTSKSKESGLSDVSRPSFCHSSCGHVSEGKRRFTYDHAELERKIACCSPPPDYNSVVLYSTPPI
Chain of ALK (Q9UM73 19-1620): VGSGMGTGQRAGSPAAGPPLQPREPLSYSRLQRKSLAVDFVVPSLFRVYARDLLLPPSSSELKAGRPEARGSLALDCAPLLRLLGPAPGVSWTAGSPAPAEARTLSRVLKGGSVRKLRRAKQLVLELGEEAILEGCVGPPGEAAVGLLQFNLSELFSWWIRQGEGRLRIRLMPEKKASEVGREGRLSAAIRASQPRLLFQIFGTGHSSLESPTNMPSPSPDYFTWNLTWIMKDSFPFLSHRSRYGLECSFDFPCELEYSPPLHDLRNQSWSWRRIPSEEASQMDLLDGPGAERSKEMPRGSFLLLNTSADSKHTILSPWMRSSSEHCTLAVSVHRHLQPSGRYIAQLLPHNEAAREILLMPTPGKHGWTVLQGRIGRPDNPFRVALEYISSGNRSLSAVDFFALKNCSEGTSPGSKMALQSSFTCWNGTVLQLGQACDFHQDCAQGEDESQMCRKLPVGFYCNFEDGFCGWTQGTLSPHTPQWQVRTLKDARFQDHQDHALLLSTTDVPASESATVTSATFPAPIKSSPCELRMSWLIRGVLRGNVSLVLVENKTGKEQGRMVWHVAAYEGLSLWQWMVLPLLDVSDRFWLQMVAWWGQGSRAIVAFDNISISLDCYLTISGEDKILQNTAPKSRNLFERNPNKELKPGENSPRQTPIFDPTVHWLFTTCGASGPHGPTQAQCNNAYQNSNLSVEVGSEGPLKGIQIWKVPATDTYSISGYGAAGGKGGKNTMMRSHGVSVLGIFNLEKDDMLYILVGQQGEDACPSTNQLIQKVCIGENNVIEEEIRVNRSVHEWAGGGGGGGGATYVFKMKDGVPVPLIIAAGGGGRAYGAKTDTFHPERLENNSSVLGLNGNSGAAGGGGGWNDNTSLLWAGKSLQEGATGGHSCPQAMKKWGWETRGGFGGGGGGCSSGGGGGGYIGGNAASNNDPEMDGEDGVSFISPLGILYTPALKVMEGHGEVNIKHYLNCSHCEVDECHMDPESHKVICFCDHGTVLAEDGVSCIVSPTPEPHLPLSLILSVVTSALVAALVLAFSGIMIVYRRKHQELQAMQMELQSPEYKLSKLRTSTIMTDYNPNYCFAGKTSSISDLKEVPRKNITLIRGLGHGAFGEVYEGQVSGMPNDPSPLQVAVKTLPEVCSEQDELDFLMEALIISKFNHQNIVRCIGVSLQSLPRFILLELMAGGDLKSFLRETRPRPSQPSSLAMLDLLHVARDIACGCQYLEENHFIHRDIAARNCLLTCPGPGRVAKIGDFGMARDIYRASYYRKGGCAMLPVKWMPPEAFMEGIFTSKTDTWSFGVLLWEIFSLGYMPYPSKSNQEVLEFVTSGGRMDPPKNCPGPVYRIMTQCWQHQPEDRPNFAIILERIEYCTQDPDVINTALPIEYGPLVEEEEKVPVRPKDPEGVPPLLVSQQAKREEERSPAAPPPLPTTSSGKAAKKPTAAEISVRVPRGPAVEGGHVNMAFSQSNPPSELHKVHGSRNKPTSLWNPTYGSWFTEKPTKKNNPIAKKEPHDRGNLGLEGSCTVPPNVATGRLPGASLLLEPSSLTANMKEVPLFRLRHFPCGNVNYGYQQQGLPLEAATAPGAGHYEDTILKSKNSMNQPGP
Chain of LCK (P06239 whole entry): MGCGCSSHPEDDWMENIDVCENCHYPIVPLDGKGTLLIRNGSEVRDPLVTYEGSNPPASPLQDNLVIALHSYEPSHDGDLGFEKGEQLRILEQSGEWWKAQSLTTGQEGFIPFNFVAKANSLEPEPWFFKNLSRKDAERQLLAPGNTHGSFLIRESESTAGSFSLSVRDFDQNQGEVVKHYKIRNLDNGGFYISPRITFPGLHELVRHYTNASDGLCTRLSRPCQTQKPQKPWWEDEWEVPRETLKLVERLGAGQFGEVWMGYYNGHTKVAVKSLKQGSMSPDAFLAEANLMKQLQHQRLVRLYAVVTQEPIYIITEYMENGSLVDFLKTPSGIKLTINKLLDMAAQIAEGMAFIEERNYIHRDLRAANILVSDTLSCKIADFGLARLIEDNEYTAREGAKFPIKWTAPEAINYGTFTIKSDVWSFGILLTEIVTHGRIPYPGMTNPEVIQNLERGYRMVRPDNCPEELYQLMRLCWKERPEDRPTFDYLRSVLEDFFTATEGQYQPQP

Cn1ncc2c(Oc3ccc(NC(=O)Nc4ccc(Cl)c(C(F)(F)F)c4)cc3)ncnc21 [Compound 1v, 1-(4-Chloro-3-(trifluoromethyl)phenyl)-3-(4-((1-methyl-1H-pyrazolo[3,4-d]pyrimidin-4-yl)oxy)phenyl)urea]
Inhibition % at 1 μΜ, RAF1 (CRAF) (RAF1 (CRAF); 1 μΜ): 102% | IC50 (RAF1 (CRAF); in parentheses in Table 4, read-out: C-RAF IC50): 0.0085 µM | Inhibition % at 1 μΜ, LTK (TYK1) (LTK (TYK1)): 3% | inhibition at 0.1 µM (BRAF^V600E; 100 nM, average of two independent experiments): 81% | inhibition at 1 µM (BRAF^V600E; 1000 nM, average of two independent experiments): 97% | IC50 (BRAF^V600E; ten concentrations 1000 to 0.0508 nM, two independent experiments): 0.0236 µM | Inhibition % at 1 μΜ, AURKB (Aurora B) (AURKB (Aurora B)): 42% | Inhibition % at 1 μΜ, MST1R (RON) (MST1R (RON)): −2% | IC50 (A549): 12.5 µM | Inhibition % at 1 μΜ, LCK (LCK): 20% | Inhibition % at 1 μΜ, BRAF (wt) (BRAF (wt); 1 μΜ): 105% | IC50 (BRAF (wt); in parentheses in Table 4, read-out: wild-type BRAF IC50): 0.0515 µM | IC50 (HT-29): 14.7 µM | Inhibition % at 1 μΜ, ALK (ALK): 7% | Inhibition % at 1 μΜ, ABL1 (ABL1): 5% | Inhibition % at 1 μΜ, FLT1 (VEGFR1) (FLT1 (VEGFR1)): 31% | Inhibition % at 1 μΜ, EPHA2 (EPHA2): 2% | Inhibition % at 1 μΜ, EGFR (ErbB1) (EGFR (ErbB1)): 8% | G0/G1 (%) (A375 cell line; A375, 6.11 μmol/L): 42.53% | G2/M (%) (A375 cell line; A375, 6.11 μmol/L): 10.94% | S (%) (A375 cell line; A375, 6.11 μmol/L): 38.25% | Sub-G1 (%) (A375 cell line; A375, 6.11 μmol/L): 4.39% | G0/G1 (%) (A375 cell line; A375, 12.21 μmol/L): 47.94% | G2/M (%) (A375 cell line; A375, 12.21 μmol/L): 7.39% | S (%) (A375 cell line; A375, 12.21 μmol/L): 38.13% | Sub-G1 (%) (A375 cell line; A375, 12.21 μmol/L): 2.12% | G0/G1 (%) (A375 cell line; A375, 24.42 μmol/L): 52.73% | G2/M (%) (A375 cell line; A375, 24.42 μmol/L): 5.48% | S (%) (A375 cell line; A375, 24.42 μmol/L): 36.19% | Sub-G1 (%) (A375 cell line; A375, 24.42 μmol/L): 5.48% | effect on cell cycle progression (A375 cell line; A375, 48 h, G0/G1 phase): dose-dependent cell cycle arrest | IC50 at 48 h [1]: > 80 µM | phosphor-MEK levels (western blot) [2]: suppressed phosphor-MEK levels in a concentration-dependent manner | IC50 (PC-3): 23.4 µM | Inhibition % at 1 μΜ, ABL2 (Arg) (ABL2 (Arg)): 4% | Inhibition % at 1 μΜ, PTK2 (FAK) (PTK2 (FAK)): 13% | melting point: 212.1 to 213 °C | Inhibition % at 1 μΜ, FLT4 (VEGFR3) (FLT4 (VEGFR3)): 58% | Inhibition % at 1 μΜ, MET (c-Met) (MET (c-Met)): 6% | Inhibition % at 1 μΜ, VEGFR-2 (VEGFR-2): 56% | Inhibition % at 1 μΜ, ErbB2 (HER2) (ErbB2 (HER2)): −7% | Inhibition % at 1 μΜ, ErbB4 (HER4) (ErbB4 (HER4)): 7% | IC50 (A375): 12.2 µM | phosphor-MEK levels (western blot) [3]: suppressed phosphor-MEK levels in a concentration-dependent manner | Inhibition % at 1 μΜ, AURKA (Aurora A) (AURKA (Aurora A)): 17%

Source: PMC6153936, “Bisarylureas Based on 1H-Pyrazolo[3,4-d]pyrimidine Scaffold as Novel Pan-RAF Inhibitors with Potent Anti-Proliferative Activities: Structure-Based Design, Synthesis, Biological Evaluation and Molecular Modelling Studies” (Molecules : A Journal of Synthetic Chemistry and Natural …, 2017)
